In patent US6699662B1, “Inhibitors of staphylococcus SarA protein function involved in the expression of staphylococcal virulence factors and the use thereof in treating staphylococcal infections” (priority 1999, dated 2004):

Legend:
[1] = tested on: SarA-DNA complex (SarA and ds A1/A2 DNA); details: for effect of PNA added to the complexed SarA and radiolabeled ds A1/A2 DNA: PNA added to a mixture of SarA and ds A1/A2 DNA
Description: The first tests of potential inhibitors are made using EMSA. Briefly, ^32P-labeled DNA fragments that correspond to the PNA or HP molecules are used as the targets. […] The concentration of SarA required to bind 50% of the DNA fragment is determined empirically. To determine the degree of inhibition, a mixture of SarA and ^32P-labeled DNA that gives 50% free DNA and 50% bound DNA (called 100% in this assay) is titrated with the PNA molecule. The concentration of PNA that reduces the SarA-DNA complex by 50% is the IC50 value. Using this simple, but effective testing procedure, the PNA or HP design is varied with regard to the sequence targeted and the length of PNA or HP molecules.
The samples were analyzed by standard EMSA and phosphorimaging.

[2] = tested on: A1/A2 oligonucleotide (SarA binding site of the agr locus); assay: EMSA of PNA binding to radiolabeled A1/A2 oligonucleotide; set-up: species or system Staphylococcus aureus
From the text: The present invention also is directed to a method of identifying inhibitors of SarA function involved in the expression of staphylococcal virulence genes comprising: a) contacting a candidate inhibitor with at least one SarA binding site of the agr locus in solution to allow the binding reaction to equilibrate for a sufficient period of time; and b) assessing the binding of said candidate inhibitor to said SarA binding site of the agr locus. (See FIG. 15 for an example of the results of this method.) The method further comprises the addition of SarA to the solution of step a) simultaneously with the inhibitor and the SarA binding site, and then an assessment of the binding affinity of the candidate inhibitor relative to the binding affinity of the SarA to the SarA binding site of the agr locus. Alternatively, the addition of SarA to the solution of step a) is sequentially with the inhibitor and the SarA binding site, and then the assessment of the binding affinity of said candidate inhibitor relative to the binding affinity of said SarA to the SarA binding site of the agr locus. (See FIG. 16 for an example of the results of this method showing the results with and without the addition of SarA.)
A prototype PNA inhibitor of SarA-agr binding is constructed and tested. […] The complexes were resolved by native gel electrophoresis and detected by phosphorimaging. […]

Substance	competition with SarA for binding to A1/A2 DNA ([1]; 10 nM dsDNA incubated with PNA (0.750 pM, 7.5, 75, 750 nM) overnight, then 10 nM SarA added, FIG. 16)	effect of PNA added to the complexed SarA and radiolabeled ds A1/A2 DNA [1]	fraction of PNA active in the binding assay ([2]; 20 nM 32P-labeled A1/A2, FIG. 15)	binding / affinity of PNA for the A1/A2 oligonucleotide ([2]; 20 nM 32P-labeled A1/A2, varying PNA concentrations, FIG. 15)
gly-TCCAATTTTTCTTAACTA-lys [18-mer]	able to outcompete SarA for binding to the DNA	the complex changed from the SarA-DNA complex to the PNA-DNA complex		
gly-TTTCTTAACTA-lys (N-terminal glycine and C-terminal lysine attached, backbone not given here, further chemistry not given here; listed as Staphylococcus aureus) [PNA-1]		did not change this complex	nearly all, if not all	very high
